# Laboratory results: patent EP4813991A1 (iLeadBMS Co., Ltd., priority 2023, dated 2025)
# How the values were obtained:
# [1] = system: MDA-MB-231 breast cancer cells; test: Proliferation inhibitory activity assay against MDA-MB-231 breast cancer cells; format: cell-based; conditions: Homo sapiens, 72 hours, CellTiter Glo, relative IC50
# In short: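 Cells grown in L-15 with 10% FBS at 37 °C, 0% CO2, then exposed next day to compounds at 9 concentrations (DMSO vehicle) for 72 h. Viability read by CellTiter Glo luminescence; relative IC50 from dose-response curve fit.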
# [2] = target: T1, CDK12 (Homo sapiens, UniProt Q9NYV4); test: CDK12 kinase inhibitory activity assay (33P-ATP filter binding); format: biochemical
# In short: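 Compound in 9 concentrations pre-incubated 20 min with kinase and substrate, then ^33P-γ-ATP added and reacted 120 min at room temperature. Phosphorylated substrate captured on filter, washed with 0.75 % phosphoric acid and counted; activity as % of DMSO control, IC50 fitted.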
# [3] = target: T1, CDK12; test: Cellular CDK12 inhibitory activity assay (Ser2 phosphorylation of RNA polymerase II subunit B1 CTD in MDA-MB-231 cells); format: cell-based; design: using MDA-MB-231 breast cancer cells; endogenous in cells; host or cells: MDA-MB-231; conditions: MDA-MB-231 cells, 6 hours treatment; read-out: pRpbl CTD S2 IC50
# In short: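 MDA-MB-231 cells in L-15 with 10 % FBS were treated with compound at 9 concentrations for 6 h at 37 °C, 0 % CO2. In-Cell Western read phospho-Ser2 and total RNA polymerase II CTD on a Li-COR Odyssey; IC50 from 4-parameter dose-response fit.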
# [4] = system: BT-20 cells; test: Breast cancer cell proliferation inhibitory activity, BT-20; format: cell-based; conditions: Homo sapiens, 72 hours, CellTiter Glo, relative IC50
# Procedure: Experiments were conducted using three types of breast cancer cell lines to measure the cell proliferation inhibitory ability of each Example compound. For HCC70 cells, 100 µL of cell suspension was dispensed into a 96-well plate using RPMI1640 (Invitrogen) medium containing 10 % FBS, followed by incubation in a cell incubator at 37 °C and 5 % CO2. For BT-20 cells, 100 µL of cell suspension was dispensed into a 96-well plate using EMEM (Invitrogen) medium containing 10 % FBS, followed by incubation in a cell incubator at 37 °C and 5 % CO2. For MDA-MB-436 cells, 100 µL of cell suspension was dispensed into a 96-well plate using L-15 (Invitrogen) medium containing 10 % FBS, followed by incubation in a cell incubator at 37 °C and 0 % CO2. The next day, each Example compound dissolved and diluted in DMSO across 9 concentration ranges and a DMSO control group were treated on the cells for 72 hours. After completion of the compound treatment, 100 µL of CellTiter Glo (Promega) reagent was added to each well of the 96-wellplate, followed by shaking for 10 minutes and standing at room temperature for 10 minutes. After inserting the 96-well plate into an Envision plate reader (PerkinElmer), luminescence signals were measured. Relative IC50 values were calculated by fitting a dose-response curve using XL fit (IDBS Ltd) software.
# The breast cancer cell proliferation inhibitory activities of the Example compounds measured by the method described above were evaluated according to the following criteria, and the results are presented in Table 15.
# [5] = kinase reaction 120 minutes, 33P-gamma-ATP, read-out: CDK12 IC50
# T1 sequence (Q9NYV4 whole entry, species assumed): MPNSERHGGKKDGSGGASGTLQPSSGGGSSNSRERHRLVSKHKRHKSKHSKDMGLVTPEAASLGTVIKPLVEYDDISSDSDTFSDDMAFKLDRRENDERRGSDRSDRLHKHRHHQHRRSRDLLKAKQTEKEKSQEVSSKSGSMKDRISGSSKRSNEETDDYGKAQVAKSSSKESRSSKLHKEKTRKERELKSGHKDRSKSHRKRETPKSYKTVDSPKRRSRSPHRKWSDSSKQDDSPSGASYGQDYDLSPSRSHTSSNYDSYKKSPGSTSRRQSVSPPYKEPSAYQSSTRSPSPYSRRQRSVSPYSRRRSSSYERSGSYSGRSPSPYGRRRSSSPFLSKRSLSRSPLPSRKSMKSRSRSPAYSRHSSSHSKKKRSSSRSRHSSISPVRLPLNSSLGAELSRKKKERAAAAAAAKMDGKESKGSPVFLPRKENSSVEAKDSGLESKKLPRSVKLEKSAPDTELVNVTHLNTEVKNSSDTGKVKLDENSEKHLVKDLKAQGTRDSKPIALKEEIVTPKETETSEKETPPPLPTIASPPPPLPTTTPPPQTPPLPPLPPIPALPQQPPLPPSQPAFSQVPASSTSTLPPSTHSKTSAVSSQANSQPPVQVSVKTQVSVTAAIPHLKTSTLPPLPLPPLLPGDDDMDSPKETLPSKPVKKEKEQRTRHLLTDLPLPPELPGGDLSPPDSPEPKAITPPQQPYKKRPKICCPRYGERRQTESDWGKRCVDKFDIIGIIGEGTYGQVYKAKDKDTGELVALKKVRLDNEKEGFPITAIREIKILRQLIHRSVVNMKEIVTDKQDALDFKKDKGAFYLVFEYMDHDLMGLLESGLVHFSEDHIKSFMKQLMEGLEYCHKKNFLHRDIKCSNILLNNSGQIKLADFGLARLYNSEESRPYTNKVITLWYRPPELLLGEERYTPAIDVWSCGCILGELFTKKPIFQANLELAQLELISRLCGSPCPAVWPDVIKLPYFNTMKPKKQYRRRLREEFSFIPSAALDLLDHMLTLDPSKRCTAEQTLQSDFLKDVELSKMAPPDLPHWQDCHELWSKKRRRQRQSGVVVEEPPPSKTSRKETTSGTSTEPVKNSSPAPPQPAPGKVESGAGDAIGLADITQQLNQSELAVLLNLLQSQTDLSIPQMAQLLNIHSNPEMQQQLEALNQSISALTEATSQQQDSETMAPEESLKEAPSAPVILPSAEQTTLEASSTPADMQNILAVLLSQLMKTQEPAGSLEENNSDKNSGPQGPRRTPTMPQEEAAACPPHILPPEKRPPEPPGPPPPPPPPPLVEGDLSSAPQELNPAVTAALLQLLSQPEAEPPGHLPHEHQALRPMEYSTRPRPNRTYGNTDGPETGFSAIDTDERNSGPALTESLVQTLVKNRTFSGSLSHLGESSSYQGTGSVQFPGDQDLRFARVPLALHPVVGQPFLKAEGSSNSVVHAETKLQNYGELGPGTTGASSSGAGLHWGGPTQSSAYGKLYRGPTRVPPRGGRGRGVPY
# T1 sequence (O75909 whole entry partner, species assumed): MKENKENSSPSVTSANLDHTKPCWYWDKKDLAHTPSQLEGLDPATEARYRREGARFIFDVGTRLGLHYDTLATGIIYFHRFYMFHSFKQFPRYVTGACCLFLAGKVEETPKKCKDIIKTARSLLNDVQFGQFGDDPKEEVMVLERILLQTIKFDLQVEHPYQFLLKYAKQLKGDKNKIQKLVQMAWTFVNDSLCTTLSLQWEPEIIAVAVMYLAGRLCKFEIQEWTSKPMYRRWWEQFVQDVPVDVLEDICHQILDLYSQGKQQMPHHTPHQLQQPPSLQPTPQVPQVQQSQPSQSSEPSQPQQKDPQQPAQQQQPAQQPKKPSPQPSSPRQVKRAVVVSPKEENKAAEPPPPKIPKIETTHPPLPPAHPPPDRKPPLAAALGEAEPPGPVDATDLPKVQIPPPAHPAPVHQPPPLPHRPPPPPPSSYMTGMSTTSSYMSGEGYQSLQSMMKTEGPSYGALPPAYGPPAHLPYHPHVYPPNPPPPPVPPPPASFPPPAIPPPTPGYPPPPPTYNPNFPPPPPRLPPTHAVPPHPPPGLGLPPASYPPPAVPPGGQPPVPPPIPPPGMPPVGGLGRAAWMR
Structure (SMILES),IC50 [1],"IC50 [2, 5]",IC50 [3],IC50 [4],IC50 [2]
"CN1CCN(c2cc(NCc3nc4ccc(F)c(F)c4[nH]3)c3ncc(C(F)(F)F)n3n2)CC1 [Example 8, N-((6,7-difluoro-1H-benzo[d]imidazol-2-yl)methyl)-6-(4-methylpiperazin-1-yl)-3-(trifluoromethyl)imidazo[1,2-b]pyridazin-8-amine]",≤ 50 nM,< 100 nM,< 300 nM,≤ 50 nM,–
"CN1CCN(c2cc(NCc3nc4cc(Cl)c(Cl)cc4[nH]3)c3ncc(C(F)(F)F)n3n2)CC1 [Example 29, N-((5,6-dichloro-1H-benzo[d]imidazol-2-yl)methyl)-6-(4-methylpiperazin-1-yl)-3-(trifluoromethyl)imidazo[1,2-b]pyridazin-8-amine]",≤ 50 nM,< 100 nM,< 300 nM,≤ 50 nM,–
"N#CC1CN(c2cc(NCc3nc4cc(Cl)c(Cl)cc4[nH]3)c3ncc(C(F)(F)F)n3n2)C1 [Example 30, 1-(8-(((5,6-dichloro-1H-benzol[d]imidazol-2-yl)methyl)amino)-3-(trifluoromethyl)imidazo[1,2-b]pyridazin-6-yl)azetidine-3-carbonitrile]",≤ 50 nM,–,< 300 nM,≤ 50 nM,100 to 500 nM
Nc1ncc(-c2cc(NCc3nc4cc(Cl)c(Cl)cc4[nH]3)c3ncc(C(F)(F)F)n3n2)cn1 [Example 40],≤ 50 nM,–,< 300 nM,–,< 100 nM
